Measurements reported in patent US20250235434A1, “RIFABUTIN ANALOGS FOR THE TREATMENT OF DISEASE” (BIOVERSYS AG, priority 2022, published 2025).
≈ marks a conversion by molar mass, not a printed value. Where two headings read alike, the source gives them in different places.

Tests used:
Format in all cases: cell-based
[1] = system: S. aureus (UAMS-1625 strain); assay: MIC by broth microdilution against S. aureus; conditions: Staphylococcus aureus, 20 h, read-out: MIC S. aureus
[2] = system: M. abscessus (ATCC 19977); assay: MIC by broth microdilution against M. abscessus; conditions: Mycobacteroides abscessus
[3] = system: A. baumannii (HUMC1 strain); assay: MIC by broth microdilution against A. baumannii; conditions: Acinetobacter baumannii, RPMI medium supplemented with 10% FCS, 35° C. for 20 hours, visual reading
M. xenopi (ATCC 19250) = assay: MIC against M. xenopi (resazurin assay); conditions: Mycobacterium xenopi, ATCC19250, 168 h, Middlebrook 7H9 + ADC, 90% growth inhibition, 7 days
[4] = system: M. smegmatis (ATCC 700084); assay: MIC against M. smegmatis (resazurin assay); conditions: Mycolicibacterium smegmatis, ATCC700084, Middlebrook 7H9 + ADC, 90% growth inhibition, 20 h
M. kansasii (ATCC 12478) = assay: MIC against M. kansasii (resazurin assay); conditions: Mycobacterium kansasii, ATCC12478, 168 h, Middlebrook 7H9 + ADC, 90% growth inhibition, 7 days
[5] = system: M. tuberculosis H37Rv (ATCC 27294); assay: microbe, parasite or virus in culture; conditions: Mycobacterium tuberculosis, 120 h
M. avium (ATCC 25291) = assay: MIC against M. avium (resazurin assay); conditions: Mycobacterium avium, ATCC25291, 168 h, Middlebrook 7H9 + ADC, 90% growth inhibition, 7 days
[6] = ATCC19977, 20 h, ATCC 19977, Middlebrook 7H9 broth with ADC supplement, visual reading, read-out: MIC M. abscessus

SMILES | MIC [1] | MIC [2, 6] | MIC [3] | MIC (M. xenopi (ATCC 19250)) | MIC [4] | MIC (M. kansasii (ATCC 12478)) | MIC [5] | MIC (M. avium (ATCC 25291)) | MIC ([2]; ATCC19977, tested M. abscessus strains, read-out: MIC value on M. abscessus)
CO[C@H]1/C=C/O[C@@]2(C)Oc3c(C)c(O)c4c(c3C2=O)C2=NC3(CCN(CC(C)C)CC3)NC2=C(NC(=O)/C(C)=C\C=C\[C@H](C)[C@H](O)[C@@H](C)[C@@H](O)[C@@H](C)[C@H](OC(=O)CNCC2CCN(C)CC2)[C@@H]1C)C4=O [Compound 1] | 0.06 µg/mL (≈ 0.0617 µM) | 2 µg/mL (≈ 2.06 µM) | ≤ 0.002 µg/mL |  |  |  |  |  | 
CO[C@H]1/C=C/O[C@@]2(C)Oc3c(C)c(O)c4c(c3C2=O)C2=NC3(CCN(CC(C)C)CC3)NC2=C(NC(=O)/C(C)=C\C=C\[C@H](C)[C@H](O)[C@@H](C)[C@@H](O)[C@@H](C)[C@H](OC(=O)CNC2CCN(C)CC2)[C@@H]1C)C4=O [Compound 2] | 0.06 µg/mL (≈ 0.0626 µM) | 2 µg/mL (≈ 2.09 µM) | ≤ 0.002 µg/mL | 0.08 µg/mL | 0.03 µg/mL | 0.02 µg/mL | 0.02 µg/mL (≈ 0.0209 µM) | 1.2 µg/mL | 
CO[C@H]1/C=C/O[C@@]2(C)Oc3c(C)c(O)c4c(c3C2=O)C2=NC3(CCN(CC(C)C)CC3)NC2=C(NC(=O)/C(C)=C\C=C\[C@H](C)[C@H](O)[C@@H](C)[C@@H](O)[C@@H](C)[C@H](OC(=O)CN2CCC(N(C)C)CC2)[C@@H]1C)C4=O [Compound 3] | 0.03 µg/mL (≈ 0.0308 µM) | 1 µg/mL (≈ 1.03 µM) | ≤ 0.002 µg/mL | 0.07 µg/mL | 0.03 µg/mL | 0.01 µg/mL | 0.008 µg/mL (≈ 0.00822 µM) | 1.2 µg/mL | 
CO[C@H]1/C=C/O[C@@]2(C)Oc3c(C)c(O)c4c(c3C2=O)C2=NC3(CCN(CC(C)C)CC3)NC2=C(NC(=O)/C(C)=C\C=C\[C@H](C)[C@H](O)[C@@H](C)[C@@H](O)[C@@H](C)[C@H](OC(=O)CN2CCCCC2)[C@@H]1C)C4=O [Compound 4] | 0.06 µg/mL (≈ 0.0645 µM) | 4 µg/mL (≈ 4.3 µM) | 0.004 µg/mL (≈ 0.0043 µM) |  |  |  |  |  | 
CO[C@H]1/C=C/O[C@@]2(C)Oc3c(C)c(O)c4c(c3C2=O)C2=NC3(CCN(CC(C)C)CC3)NC2=C(NC(=O)/C(C)=C\C=C\[C@H](C)[C@H](O)[C@@H](C)[C@@H](O)[C@@H](C)[C@H](OC(=O)CN2CCN(c3ccccc3)CC2)[C@@H]1C)C4=O [Compound 7] | 0.5 µg/mL (≈ 0.496 µM) | 0.5 µg/mL (≈ 0.496 µM) | 0.06 µg/mL (≈ 0.0596 µM) |  |  |  |  |  | 
CO[C@H]1/C=C/O[C@@]2(C)Oc3c(C)c(O)c4c(c3C2=O)C2=NC3(CCN(CC(C)C)CC3)NC2=C(NC(=O)/C(C)=C\C=C\[C@H](C)[C@H](O)[C@@H](C)[C@@H](O)[C@@H](C)[C@H](OC(=O)CNCCN2CCCCC2)[C@@H]1C)C4=O [Compound 8] | 0.06 µg/mL (≈ 0.0617 µM) | 1 µg/mL (≈ 1.03 µM) | ≤ 0.002 µg/mL |  |  |  |  |  | 
CO[C@H]1/C=C/O[C@@]2(C)Oc3c(C)c(O)c4c(c3C2=O)C2=NC3(CCN(CC(C)C)CC3)NC2=C(NC(=O)/C(C)=C\C=C\[C@H](C)[C@H](O)[C@@H](C)[C@@H](O)[C@@H](C)[C@H](OC(=O)CNCCN2CCN(C)CC2)[C@@H]1C)C4=O [Compound 9] | 0.06 µg/mL (≈ 0.0607 µM) | 2 µg/mL (≈ 2.02 µM) | ≤ 0.002 µg/mL |  |  |  |  |  | 
CO[C@H]1/C=C/O[C@@]2(C)Oc3c(C)c(O)c4c(c3C2=O)C2=NC3(CCN(CC(C)C)CC3)NC2=C(NC(=O)/C(C)=C\C=C\[C@H](C)[C@H](O)[C@@H](C)[C@@H](O)[C@@H](C)[C@H](OC(=O)CNCCCN2CCOCC2)[C@@H]1C)C4=O [Compound 11] | 0.06 µg/mL (≈ 0.0607 µM) | 2 µg/mL (≈ 2.02 µM) | 0.008 µg/mL (≈ 0.00809 µM) |  |  |  |  |  | 
CO[C@H]1/C=C/O[C@@]2(C)Oc3c(C)c(O)c4c(c3C2=O)C2=NC3(CCN(CC(C)C)CC3)NC2=C(NC(=O)/C(C)=C\C=C\[C@H](C)[C@H](O)[C@@H](C)[C@@H](O)[C@@H](C)[C@H](OC(=O)CNCCN(C)C)[C@@H]1C)C4=O [Compound 13] | 0.03 µg/mL (≈ 0.0321 µM) | 2 µg/mL (≈ 2.14 µM) | ≤ 0.002 µg/mL |  |  |  |  |  | 
CO[C@H]1/C=C/O[C@@]2(C)Oc3c(C)c(O)c4c(c3C2=O)C2=NC3(CCN(CC(C)C)CC3)NC2=C(NC(=O)/C(C)=C\C=C\[C@H](C)[C@H](O)[C@@H](C)[C@@H](O)[C@@H](C)[C@H](OC(=O)CNCC(C)C)[C@@H]1C)C4=O [Compound 17] | 0.06 µg/mL (≈ 0.0653 µM) | 4 µg/mL (≈ 4.36 µM) | 0.008 µg/mL (≈ 0.00871 µM) |  |  |  |  |  | 
CO[C@H]1/C=C/O[C@@]2(C)Oc3c(C)c(O)c4c(c3C2=O)C2=NC3(CCN(CC(C)C)CC3)NC2=C(NC(=O)/C(C)=C\C=C\[C@H](C)[C@H](O)[C@@H](C)[C@@H](O)[C@@H](C)[C@H](OC(=O)CN2CCC(Cc3ccccc3)CC2)[C@@H]1C)C4=O [Compound 21] | 4 µg/mL (≈ 3.92 µM) | 2 µg/mL (≈ 1.96 µM) | 0.125 µg/mL (≈ 0.123 µM) |  |  |  |  |  | 
COc1cc(CC2CCN(CC(=O)O[C@H]3[C@H](C)[C@H](O)[C@H](C)[C@@H](O)[C@@H](C)/C=C/C=C(/C)C(=O)NC4=C5NC6(CCN(CC(C)C)CC6)N=C5c5c(c(O)c(C)c6c5C(=O)[C@@](C)(O/C=C/[C@H](OC)[C@H]3C)O6)C4=O)CC2)cc(C(F)(F)F)c1 [Compound 22] | 4 µg/mL (≈ 3.58 µM) | 4 µg/mL (≈ 3.58 µM) | 0.25 µg/mL (≈ 0.224 µM) |  |  |  |  |  | 
CO[C@H]1/C=C/O[C@@]2(C)Oc3c(C)c(O)c4c(c3C2=O)C2=NC3(CCN(CC(C)C)CC3)NC2=C(NC(=O)/C(C)=C\C=C\[C@H](C)[C@H](O)[C@@H](C)[C@@H](O)[C@@H](C)[C@H](OC(=O)CN2CCC(C(O)c3nccn3C)CC2)[C@@H]1C)C4=O (some centres unmarked) [Compound 23] | 0.125 µg/mL (≈ 0.12 µM) | 1 µg/mL (≈ 0.961 µM) | 0.004 µg/mL (≈ 0.00385 µM) |  |  |  |  |  | 
CO[C@H]1/C=C/O[C@@]2(C)Oc3c(C)c(O)c4c(c3C2=O)C2=NC3(CCN(CC(C)C)CC3)NC2=C(NC(=O)/C(C)=C\C=C\[C@H](C)[C@H](O)[C@@H](C)[C@@H](O)[C@@H](C)[C@H](OC(=O)CN2CCC(NC(=O)OC(C)(C)C)CC2)[C@@H]1C)C4=O [Compound 27] | 0.125 µg/mL (≈ 0.12 µM) | 0.25 µg/mL (≈ 0.239 µM) | 0.008 µg/mL (≈ 0.00765 µM) |  |  |  |  |  | 
CO[C@H]1/C=C/O[C@@]2(C)Oc3c(C)c(O)c4c(c3C2=O)C2=NC3(CCN(CC(C)C)CC3)NC2=C(NC(=O)/C(C)=C\C=C\[C@H](C)[C@H](O)[C@@H](C)[C@@H](O)[C@@H](C)[C@H](OC(=O)CN2CCC(N3CCn5ccnc5C3)CC2)[C@@H]1C)C4=O [Compound 30] | 0.06 µg/mL (≈ 0.0571 µM) | 1 µg/mL (≈ 0.951 µM) | ≤ 0.002 µg/mL |  |  |  |  |  | 
CO[C@H]1/C=C/O[C@@]2(C)Oc3c(C)c(O)c4c(c3C2=O)C2=NC3(CCN(CC(C)C)CC3)NC2=C(NC(=O)/C(C)=C\C=C\[C@H](C)[C@H](O)[C@@H](C)[C@@H](O)[C@@H](C)[C@H](OC(=O)CN2CC(Nc3ccc(F)cc3)C2)[C@@H]1C)C4=O [Compound 31] | 0.06 µg/mL (≈ 0.0593 µM) | 4 µg/mL (≈ 3.96 µM) | 0.008 µg/mL (≈ 0.00791 µM) |  |  |  |  |  | 
CO[C@H]1/C=C/O[C@@]2(C)Oc3c(C)c(O)c4c(c3C2=O)C2=NC3(CCN(CC(C)C)CC3)NC2=C(NC(=O)/C(C)=C\C=C\[C@H](C)[C@H](O)[C@@H](C)[C@@H](O)[C@@H](C)[C@H](OC(=O)CN2CC(n3cccc3)C2)[C@@H]1C)C4=O [Compound 32] | 0.03 µg/mL (≈ 0.031 µM) | 2 µg/mL (≈ 2.07 µM) | 0.008 µg/mL (≈ 0.00827 µM) |  |  |  |  |  | 
CC[N+](CC)(CC)CC(=O)O[C@H]1[C@H](C)[C@H](O)[C@H](C)[C@@H](O)[C@@H](C)/C=C/C=C(/C)C(=O)NC2=C3NC4(CCN(CC(C)C)CC4)N=C3c3c(c(O)c(C)c4c3C(=O)[C@@](C)(O/C=C/[C@H](OC)[C@H]1C)O4)C2=O [Compound 36] | 0.125 µg/mL | 2 µg/mL | ≤ 0.002 µg/mL |  |  |  |  |  | 
CO[C@H]1/C=C/O[C@@]2(C)Oc3c(C)c(O)c4c(c3C2=O)C2=NC3(CCN(CC(C)C)CC3)NC2=C(NC(=O)/C(C)=C\C=C\[C@H](C)[C@H](O)[C@@H](C)[C@@H](O)[C@@H](C)[C@H](OC(=O)C[n+]2ccccc2)[C@@H]1C)C4=O [Compound 37] | 0.25 µg/mL | 2 µg/mL | 0.004 µg/mL |  |  |  |  |  | 
CO[C@H]1/C=C/O[C@@]2(C)Oc3c(C)c(O)c4c(c3C2=O)C2=NC3(CCN(CC(C)C)CC3)NC2=C(NC(=O)/C(C)=C\C=C\[C@H](C)[C@H](O)[C@@H](C)[C@@H](O)[C@@H](C)[C@H](OC(=O)C[n+]2ccc(C)cc2)[C@@H]1C)C4=O [Compound 38] | 0.25 µg/mL | 2 µg/mL | 0.004 µg/mL |  |  |  |  |  | 
CO[C@H]1/C=C/O[C@@]2(C)Oc3c(C)c(O)c4c(O)c(c(/C=N/N5CCN(C)CC5)c(O)c4c3C2=O)NC(=O)/C(C)=C\C=C\[C@H](C)[C@H](O)[C@@H](C)[C@@H](O)[C@@H](C)[C@H](OC(C)=O)[C@@H]1C [Rifampicin, reference compound] |  |  |  |  |  |  |  |  | > 32 µg/mL
